Here are results for four molecules from patent US9273095B2, “Antibiotic peptide and preparation method therefor and application therefor” (priority 2011, dated 2016).

≈ marks a conversion by molar mass, not a printed value. Where two headings read alike, the source gives them in different places. Marks after values point to notes of the source that are not given here. Non-standard residues stand in square brackets, D forms with d. Residues, ends and D or L forms follow the SMILES beside them.

The subject of one series is candida krusei. The experiment in a line: microbe, parasite or virus in culture. In kind it is cell-based. The note with it: for MIC: Pichia kudriavzevii, read-out: Minimal inhibitory concentration. The source says: • (1) Test strains: monilia albicans (candida albicans), candida glabrata, candida krusei, candida tropicalis, aspergillus fumigatus and flavous. (2) Quality control strains: candida krusei JLC30366 (ATCC6258). Antimicrobial peptides PL-13 (SEQ ID NO: 1) under test are supplied by Jiangsu ProteLight Pharmaceutical & Biotechnology Co., LTD. […] (1) The bacterial strains which preserved on PDA slant are respectively inoculated onto PDA plate and slant medium. Activation of bacterial strains is conducted at a humidity level of 60% and 25° C. (for aspergillus) or 37° C. (for candida). (2) 0.9% stroke-physiological saline solution comprising 0.5% Tween-80 is used to prepare bacterial suspension for experiment. Hemocytometer is utilized to adjust concentration of the bacterial suspension to 1-3×10^6 CFU/ml (0.5 McFarland units) to make stock solution in reserve at -20° C. During the sensitivity test, the RPMI-1640 liquid medium is diluted 1000 times to 1-3×10^3 CFU/ml. (3) The RPMI-1640 liquid is utilized as diluent to 10-fold dilute stock solution of peptides. […] The eleventh orifice is used as living control orifice, while the twelfth one as blank control. (4) The RPMI-1640 liquid is utilized as diluent to 10-fold dilute stock solution of FCZ and ICZ. […] Ditto for other operations.

The subject of series [1] is Staphylococcus epidermidis. The experiment in a line: microbe, parasite or virus in culture. In kind it is cell-based. On the procedure: (§1) The experimental strains are 37 standard strains preserved in lab and clinical isolated bacteria, including drug-resistant bacteria and quality-control bacteria selecting Staphylococcus aureus ATCC29213, Enterococcus faecalis ATCC29212, Escherichia coli ATCC25922, Pseudomonas aeruginosa ATCC27853 and klebsiella pneumoniae ATCC700603.
(§2) (1) Sensitivity test is conducted with two-fold agar dilution method and Denlay multipoint inoculator. Test bacteria are cultured with nutrient broth and brain heart infusion.
(§3) (2) The drug is double diluted into different concentration with MH broth after dissolved and then placed in the plate respectively.
(§4) (3) After dissolved, MH agar culture medium are injected into the plate with drug quantitatively and mixed to make the final concentration of drug are 0.03, 0.06, 0.125, . . . , 128 μg/ml respectively.
(§5) (4) After solidification of the culture medium in the plate, test bacteria (10^4CFU/point) are inoculated by multipoint inoculator and cultured for 18 hours at constant 35° C. Then observe the results.

Series [2] deals with Acinetobacter calcoaceticus. The experiment in a line: microbe, parasite or virus in culture. Type of series: cell-based. On the procedure: as §1, §2, §3, §4, §5
Series [3] deals with red cell suspension from healthy volunteers. The experiment in a line: Hemolytic activity test. In kind it is cell-based, human. The note with it: for Hemolytic activity, absorbancy (OD value) at 570 nm: 4 hours at 37° C., OD higher than 0.1 is hemolytic, n = 3. On the procedure:
(1) Samples are serial diluted with sterile PBS to 1000, 500, 250, 125, 64, 32, 16, 8, 4 μg/ml in turn and spread in 96-well plates, 100 μl per orifice.
(2) We use distilled water as positive control, sterile PBS as negative control and blank orifice with 200 μl PBS solution added. Each concentration above is made in triplicate.
(3) We take 3 ml whole blood from healthy volunteers and washed it with sterile PBS three times to prepare fresh 2% concentration red cell suspension. Then we added 100 μl red cell suspension into each orifice and made them cultured for 4 hours at 37° C. in the incubator. After centrifuged by plate-swashing centrifuge, the supernatant liquid is collected and measured absorbancy (OD value) at a wavelength of 570 nm. Then we compared the hemolytic efficiency of these concentrations.
(4) According to the documents standard, OD value which is higher than 0.1 is hemolytic concentration.

In the next series the test system is Enterococcus faecium. Put plainly: microbe, parasite or virus in culture. Type of series: cell-based. On the procedure:
as §1, §2, §3, §5

The next series concerns candida glabrata. The experiment in a line: microbe, parasite or virus in culture. In kind it is cell-based. The note with it: for MIC: Nakaseomyces glabratus, read-out: Minimal inhibitory concentration. The procedure: (§6) • (1) Test strains: monilia albicans (candida albicans), candida glabrata, candida krusei, candida tropicalis, aspergillus fumigatus and flavous. Antimicrobial peptides PL-13 (SEQ ID NO: 1) under test are supplied by Jiangsu ProteLight Pharmaceutical & Biotechnology Co., LTD. […] Activation of bacterial strains is conducted at a humidity level of 60% and 25° C. (for aspergillus) or 37° C. (for candida). (2) 0.9% stroke-physiological saline solution comprising 0.5% Tween-80 is used to prepare bacterial suspension for experiment. Hemocytometer is utilized to adjust concentration of the bacterial suspension to 1-3×10^6 CFU/ml (0.5 McFarland units) to make stock solution in reserve at -20° C. During the sensitivity test, the RPMI-1640 liquid medium is diluted 1000 times to 1-3×10^3 CFU/ml. (3) The RPMI-1640 liquid is utilized as diluent to 10-fold dilute stock solution of peptides. […] The eleventh orifice is used as living control orifice, while the twelfth one as blank control. (4) The RPMI-1640 liquid is utilized as diluent to 10-fold dilute stock solution of FCZ and ICZ. […] Ditto for other operations.

A further series deals with candida tropicalis. Put plainly: microbe, parasite or virus in culture. In kind it is cell-based. The note with it: for MIC: Candida tropicalis, read-out: Minimal inhibitory concentration. On the procedure:
as §6

In a further series the test system is candida albicans. The experiment in a line: microbe, parasite or virus in culture. In kind it is cell-based. The note with it: for MIC: Candida albicans, read-out: Minimal inhibitory concentration. On the procedure:
as §6

The next series concerns aspergillus flavous. The experiment in a line: microbe, parasite or virus in culture. The note with it: for MIC: JLC 30784 aspergillus flavous, read-out: Minimal inhibitory concentration. In kind it is cell-based. The procedure:
as §6

In another series the test system is aspergillus fumigatus. The experiment in a line: microbe, parasite or virus in culture. The note with it: for MIC: JLC 30506 aspergillus fumigatus, read-out: Minimal inhibitory concentration. Type of series: cell-based. On the procedure:
as §6

In the next series the test system is Escherichia. Put plainly: Therapeutic test of oral preparation on mice with systemic infection, survival time. In kind it is in vivo, ICR mice. The note with it: 80 mg/kg gavage three times a day for seven days, n = 10. The procedure:
(§7) There are 30 male and 30 female ICR mice with the weight ranging from 18 g to 22 g. […] With trinitrophenal marking method, all the mice are raised with ordinary animal feeds in the ordinary animal houses and they can drink water freely. Alternating of light and dark is conducted every 12 hours.
(§8) 2. Infected Strains: Escherichia and Bacillus dysenteriae
(§9) (1) The preparation of bacterial suspension is the same as above.
(§10) (2) The Escherichia suspension cultured overnight is diluted to 1×10^7CFU/ml. The Bacillus dysenteriae suspension cultured overnight is diluted to 1×10^5CFU/ml. They are all applied in reserve.
(§11) (3) Except the blank control group, every other mouse is injected with 0.2 ml Escherichia suspension with the concentration of 1×10^7CFU/ml or 0.2 ml Bacillus dysenteriae suspension with the concentration of 1×10^5CFU/ml intraperitoneally to make model.
(§12) (4) Administration: The drugs are administered according to mice′ weight right after the model is ready. All the groups excepting the blank and the infected negative control groups are administered by gavaging with different dosage of drugs three times a day successively for seven days, and they are observed for fourteen days.
(§13) (5) Observe death of the animals and record their survival time.

Another series deals with Bacillus dysenteriae. The series is described as above. In kind it is in vivo, ICR mice. The note with it: 80 mg/kg gavage three times a day for seven days, n = 10. On the procedure:
as §7, §8, §9, §10, §11, §12, §13

[4] abbreviates: JLC 30883 aspergillus fumigatus.

Turning to `CC(=O)N[C@H](Cc1ccccc1)C(=O)N[C@H](CCCCN)C(=O)N[C@H](CCCCN)C(=O)N[C@H](CC(C)C)C(=O)N[C@H](CCCCN)C(=O)N[C@H](CCCCN)C(=O)N[C@H](CCCCN)C(=O)N[C@H](Cc1ccccc1)C(=O)N[C@H](CO)C(=O)N[C@H](CCCCN)C(=O)N[C@H](CC(C)C)C(=O)N[C@H](Cc1c[nH]c2ccccc12)C(=O)N[C@H](CC(N)=O)C(=O)N[C@H](Cc1c[nH]c2ccccc12)C(=O)N[C@H](CCCCN)C(N)=O` [PL-34] (Ac-[dF][dK][dK][dL][dK][dK][dK][dF][dS][dK][dL][dW][dN][dW][dK]-NH2), the Minimal inhibitory concentration in the series with candida krusei is 8 µg/mL (≈ 3.9 µM); in the series with candida glabrata, 32 µg/mL (≈ 15.6 µM); in the series on candida tropicalis, 4 µg/mL (≈ 1.95 µM); in the series with candida albicans, 16 µg/mL (≈ 7.8 µM); in the series with aspergillus flavous, more than 64 µg/mL; in the series with aspergillus fumigatus it was more than 64 µg/mL. Further, the MIC (in [1] (08-17 (MSSE) Meticillin susceptible staphylococcus epidermidis); in series [1] ((MRSE) Methicillin-resistant Staphylococcus epidermidis ATCC12228); in [2]; in the series with Enterococcus faecium) was 1.3 µM (≈ 2.67 µg/mL) throughout. The “Hemolytic activity, absorbancy (OD value) at 570 nm” value came out at 0.032 in series [3] (peptide 7.8125 μg/ml); 0.041 in series [3] (peptide 15.625 μg/ml); 0.054 in [3] (peptide 31.25 μg/ml); 0.061 in series [3] (peptide 62.5 μg/ml); 0.073 in series [3] (peptide 125 μg/ml); 0.087 in [3] (peptide 250 μg/ml). Moreover, the “Hemolytic activity, absorbancy (OD value) at 570 nm” value in [3] (peptide 500 μg/ml) turned out to be 0.135; in series [3] (peptide 1000 μg/ml), 0.317. Further, the “hemolytic toxicity (in words)” value in series [3] (summary of Table 9) is “little hemolytic toxicity”.
Regarding `OC(Cn1cncn1)(Cn1cncn1)c1ccc(F)cc1F` [FCZ, Fluconazol, reference compound], the MIC in the series on candida krusei (JLC 30366 candida krusei) worked out at 16 µg/mL (≈ 52.2 µM); in the series with candida krusei (JLC 30383 candida krusei), 8 µg/mL (≈ 26.1 µM); in the series on candida glabrata (JLC 30367 candida glabrata), 2 µg/mL (≈ 6.53 µM); in the series with candida glabrata (JLC 31512 candida glabrata) it was 1 µg/mL (≈ 3.27 µM); in the series on candida tropicalis (JLC 31379 candida tropicalis), 0.5 µg/mL (≈ 1.63 µM); in the series on candida tropicalis (JLC 31384 candida tropicalis) it was 0.25 µg/mL (≈ 0.816 µM). Moreover, the MIC with candida albicans (JLC 33659 candida albicans) was 0.25 µg/mL (≈ 0.816 µM); with candida albicans (JLC 33660 candida albicans), 0.25 µg/mL (≈ 0.816 µM); with aspergillus flavous, more than 64 µg/mL; with aspergillus fumigatus it was more than 64 µg/mL. The Minimal inhibitory concentration in the series with aspergillus flavous (JLC 40437 aspergillus flavous) and with aspergillus fumigatus (setting [4]) was more than 64 µg/mL in each case.
Turning to `CCS(=O)(=O)CCn1c([N+](=O)[O-])cnc1C` [Tinidazole], the Mean survival Time in the series on Escherichia (observed fourteen days) is 7.5* day; in the series with Bacillus dysenteriae (observed fourteen days) it was 7.0* day. For the same molecule, the “Mortality of mice in different days after infection” value came to 1 in the series with Escherichia (day 4); 2 in the series with Escherichia (day 5); 2 in the series on Escherichia (day 6); 1 in the series with Escherichia (day 7); 1 with Escherichia (day 8); 2 in the series on Escherichia (day 9). Also, the “Mortality of mice in different days after infection” value is on record as 2 with Bacillus dysenteriae (day 4); 1 with Bacillus dysenteriae (day 5); 2 in the series with Bacillus dysenteriae (day 6); 2 in the series on Bacillus dysenteriae (day 7); 1 in the series with Bacillus dysenteriae (day 8); 1 in the series on Bacillus dysenteriae (day 9).
With `CCC(C)n1ncn(-c2ccc(N3CCN(c4ccc(OCC5COC(Cn6cncn6)(c6ccc(Cl)cc6Cl)O5)cc4)CC3)cc2)c1=O` (stereo not drawn) [ICZ, Itraconazole, reference compound], the MIC with candida krusei (JLC 30366 candida krusei) amounted to 0.25 µg/mL (≈ 0.354 µM); in the series with candida krusei (JLC 30383 candida krusei), 0.25 µg/mL (≈ 0.354 µM); in the series with candida glabrata (JLC 30367 candida glabrata) it was 0.0625 µg/mL (≈ 0.0886 µM); in the series with candida glabrata (JLC 31512 candida glabrata), 0.03 µg/mL (≈ 0.0425 µM); in the series with candida tropicalis (JLC 31379 candida tropicalis), 0.03 µg/mL (≈ 0.0425 µM); with candida tropicalis (JLC 31384 candida tropicalis), 0.03 µg/mL (≈ 0.0425 µM). Besides, the MIC in the series with candida albicans (JLC 33659 candida albicans) was determined as 0.03 µg/mL (≈ 0.0425 µM); with candida albicans (JLC 33660 candida albicans) it was 0.0625 µg/mL (≈ 0.0886 µM); with aspergillus flavous it was 0.125 µg/mL (≈ 0.177 µM); in the series on aspergillus fumigatus, 0.125 µg/mL (≈ 0.177 µM). Moreover, the Minimal inhibitory concentration in the series on aspergillus flavous (JLC 40437 aspergillus flavous) and in the series with aspergillus fumigatus (setting [4]) was 0.125 µg/mL (≈ 0.177 µM) each time.
